The values that follow come from PubChem BioAssay (NCI).

Among the test systems are SK-MEL-28 melanoma; RPMI-8226 leukemia; OVCAR-8 ovarian; SK-MEL-2 melanoma; UACC-257 melanoma; U251 CNS; BT-549 breast; SF-295 CNS; NCI-H460 lung; K-562 leukemia; HL-60(TB) leukemia; HCT-116 colon; CAKI-1 renal; PC-3 prostate; A498 renal; HT29 colon.
Assay in all cases: growth of human tumour cells (NCI), 48 h

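Five concentrations, 48 hours, 96-well plates. At the TGI there is no net growth.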

As for `Fc1ccc(C(OCCN2CCC3CCC(C2)N3CCCc2ccccc2)c2ccc(F)cc2)cc1` (configuration not stated), the TGI with SK-MEL-28 melanoma is 6.53 µM; with RPMI-8226 leukemia it was 5.11 µM; in the assay with OVCAR-8 ovarian it was 4.93 µM; in the assay with SK-MEL-2 melanoma, 14 µM; in the assay with UACC-257 melanoma it was 8.93 µM; in the assay with U251 CNS it was 15.1 µM. Further, the TGI in the assay with BT-549 breast amounted to 21.1 µM; with SF-295 CNS, 8.45 µM; with NCI-H460 lung, 7.51 µM; in the assay with K-562 leukemia, 5.8 µM; in the assay on HL-60(TB) leukemia it was 5.21 µM; in the assay with HCT-116 colon, 10.6 µM. Also, the TGI in the assay on CAKI-1 renal came to 18.3 µM; with PC-3 prostate, 11.4 µM; in the assay with A498 renal, 11.8 µM; in the assay with HT29 colon it was 13.7 µM.
Turning to `CN1CC=C(OP(=O)(NCc2ccccc2)N(CCCl)CCCl)CC1` (configuration not stated), the TGI in the assay with SK-MEL-28 melanoma, with RPMI-8226 leukemia, with OVCAR-8 ovarian, in the assay on SK-MEL-2 melanoma, in the assay with UACC-257 melanoma and in the assay on U251 CNS was over 100 µM in each case. Also, the TGI in the assay with BT-549 breast, with SF-295 CNS, with NCI-H460 lung, in the assay on K-562 leukemia, with HL-60(TB) leukemia and in the assay on HCT-116 colon was over 100 µM throughout. Besides, the TGI in the assay on CAKI-1 renal, in the assay with PC-3 prostate, in the assay with A498 renal and with HT29 colon was over 100 µM throughout.
`CC(=O)Nc1c(C)cc(OCC(=O)O)cc1C`: the TGI with SK-MEL-28 melanoma, in the assay on RPMI-8226 leukemia, in the assay on OVCAR-8 ovarian, in the assay with SK-MEL-2 melanoma, in the assay with UACC-257 melanoma and with U251 CNS was over 100 µM each time. For the same compound, the TGI in the assay on BT-549 breast, with SF-295 CNS, in the assay on NCI-H460 lung, in the assay on K-562 leukemia, in the assay on HL-60(TB) leukemia and with HCT-116 colon was over 100 µM throughout. Besides, the TGI in the assay with CAKI-1 renal, with PC-3 prostate, in the assay with A498 renal and in the assay with HT29 colon was over 100 µM each time.
As for `COc1ccc(CSCc2cc(OC)c(OC)c(OC)c2)cc1`, the TGI in the assay on SK-MEL-28 melanoma is over 100 µM; with RPMI-8226 leukemia, over 100 µM; in the assay with OVCAR-8 ovarian it was over 31.6 µM; in the assay on SK-MEL-2 melanoma it was over 100 µM; in the assay with UACC-257 melanoma, over 31.6 µM; in the assay on U251 CNS it was over 100 µM. Also, the TGI with BT-549 breast was over 100 µM; with SF-295 CNS, over 100 µM; in the assay with NCI-H460 lung, over 100 µM; in the assay with K-562 leukemia, over 100 µM; in the assay with HL-60(TB) leukemia, over 100 µM; with HCT-116 colon, over 31.6 µM. For the same compound, the TGI in the assay on CAKI-1 renal was over 100 µM; in the assay with PC-3 prostate, over 31.6 µM; in the assay on A498 renal, over 100 µM; in the assay on HT29 colon it was over 100 µM.
In the case of `COC(=O)n1c(=O)nc2c3c(ncn21)Oc1c(c(-c2ccccc2)nn1-c1ccccc1)C3c1ccc(Cl)cc1` (configuration not stated), the TGI in the assay with SK-MEL-28 melanoma is 3.18 µM; in the assay with RPMI-8226 leukemia, 4.07 µM; with SK-MEL-2 melanoma, 3.07 µM; in the assay with UACC-257 melanoma, 3.76 µM; with U251 CNS it was 3.08 µM; in the assay on BT-549 breast, 17.7 µM. The TGI with SF-295 CNS was determined as 3.04 µM; in the assay with NCI-H460 lung it was 3.09 µM; in the assay with K-562 leukemia, 3.37 µM; in the assay with HL-60(TB) leukemia, 3.17 µM; with HCT-116 colon, 2.17 µM; in the assay with CAKI-1 renal it was 2.98 µM. Besides, the figures for the TGI in the assay with PC-3 prostate, in the assay on A498 renal and in the assay with HT29 colon were 2.94 µM, 5.02 µM and 2.9 µM, respectively.
Consider `Cc1ccc2c(ccc3c[n+]4ccccc4c(C)c32)c1`, for which the TGI in the assay on SK-MEL-28 melanoma amounted to 11.5 µM; in the assay with RPMI-8226 leukemia it was 67.2 µM; with OVCAR-8 ovarian it was 16.2 µM; with SK-MEL-2 melanoma, 11.6 µM; in the assay with UACC-257 melanoma, 5.59 µM; with U251 CNS, 12.1 µM. The TGI in the assay with BT-549 breast is 5.74 µM; with SF-295 CNS, 27.2 µM; in the assay with NCI-H460 lung, over 100 µM; in the assay on K-562 leukemia, over 100 µM; with HL-60(TB) leukemia, over 100 µM; with HCT-116 colon, 27.2 µM. For the same compound, the TGI in the assay on CAKI-1 renal is 65.5 µM; in the assay on PC-3 prostate it was 15.9 µM; in the assay on A498 renal it was over 100 µM; in the assay with HT29 colon, 25.9 µM.
Regarding `CCOP(=O)(CS(C)=O)O[C@@H]1C[C@H](C)CC[C@H]1C(C)C` (some centres not stated), the TGI in the assay on SK-MEL-28 melanoma was over 100 µM; in the assay on RPMI-8226 leukemia, 5.3 µM; with OVCAR-8 ovarian it was 17.4 µM; in the assay on SK-MEL-2 melanoma, 12.8 µM; with UACC-257 melanoma it was 18.7 µM; with U251 CNS, 16.1 µM. Besides, the TGI was 17.3 µM in the assay on BT-549 breast; 18.5 µM in the assay with SF-295 CNS; 17.6 µM in the assay on NCI-H460 lung; over 100 µM with K-562 leukemia; over 36.4 µM with HL-60(TB) leukemia; over 23.9 µM with HCT-116 colon. Moreover, the TGI was 12.8 µM in the assay with CAKI-1 renal, 19.7 µM with PC-3 prostate, 4.87 µM in the assay with A498 renal and over 34.1 µM in the assay on HT29 colon.
For `CN(CCO)CC(=O)CC(O)(C(F)(F)F)C(F)(F)F`, the TGI was over 100 µM in the assay with SK-MEL-28 melanoma; over 100 µM with RPMI-8226 leukemia; over 100 µM in the assay on OVCAR-8 ovarian; 95.3 µM in the assay with SK-MEL-2 melanoma; over 100 µM in the assay with UACC-257 melanoma; over 100 µM in the assay with U251 CNS. For the same compound, the TGI in the assay with BT-549 breast is over 100 µM; with SF-295 CNS it was over 100 µM; with NCI-H460 lung, over 100 µM; in the assay on K-562 leukemia it was over 100 µM; in the assay on HL-60(TB) leukemia, 73.5 µM; with HCT-116 colon, over 100 µM. Also, the TGI in the assay with CAKI-1 renal is 90.3 µM; in the assay on PC-3 prostate, 82.8 µM; with A498 renal, over 100 µM; in the assay on HT29 colon it was over 100 µM.
